In PMC10307805, “DprE2 is a molecular target of the anti-tubercular nitroimidazole compounds pretomanid and delamanid” (Nature Communications, 2023):

How the values were obtained:
Format in all cases: biochemical
[1] = biological target: T1, DprE2 (decaprenylphosphoryl-2-keto-β-D-erythro-pentose reductase) (Mycobacterium tuberculosis, UniProt P9WGS9); assay: […]; also IC50 […] and radiolabeled DPR epimerization TLC
[2] = biological target: T2, Ddn (deazaflavin F420-dependent nitroreductase) (Mycobacterium tuberculosis, UniProt P9WP15)
T2 construct: recombinant Ddn, SUMO tag removed
T2 sequence (P9WP15 whole entry): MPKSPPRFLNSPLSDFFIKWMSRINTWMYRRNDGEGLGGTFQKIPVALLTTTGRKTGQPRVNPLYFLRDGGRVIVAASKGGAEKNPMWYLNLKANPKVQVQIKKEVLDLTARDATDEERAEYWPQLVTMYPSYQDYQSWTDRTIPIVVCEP

[3] = biological target: DprE1 (decaprenylphosphoryl-β-D-ribose oxidase) (Mycobacterium tuberculosis, UniProt P9WJF1); assay: resazurin reduction fluorescence assay with GGPR (also […] on Mt-DprE1-DprE2 complex)
Sequence of DprE1 (decaprenylphosphoryl-β-D-ribose oxidase) (P9WJF1 whole entry): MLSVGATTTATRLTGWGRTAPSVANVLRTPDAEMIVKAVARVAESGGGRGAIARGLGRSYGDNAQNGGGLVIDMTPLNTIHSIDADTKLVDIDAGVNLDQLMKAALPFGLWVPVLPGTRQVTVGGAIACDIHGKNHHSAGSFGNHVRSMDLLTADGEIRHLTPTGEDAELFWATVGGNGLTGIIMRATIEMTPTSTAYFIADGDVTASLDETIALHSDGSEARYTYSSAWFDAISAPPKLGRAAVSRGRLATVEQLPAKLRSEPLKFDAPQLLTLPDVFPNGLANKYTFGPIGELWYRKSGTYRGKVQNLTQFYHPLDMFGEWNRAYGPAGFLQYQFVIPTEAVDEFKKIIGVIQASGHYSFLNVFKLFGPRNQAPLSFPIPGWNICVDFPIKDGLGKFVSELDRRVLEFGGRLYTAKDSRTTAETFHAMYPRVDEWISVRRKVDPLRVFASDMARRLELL

[4] = biological target: T1, DprE2 (decaprenylphosphoryl-2-keto-β-D-erythro-pentose reductase)

T1 sequence (P9WGS9 whole entry, looked up): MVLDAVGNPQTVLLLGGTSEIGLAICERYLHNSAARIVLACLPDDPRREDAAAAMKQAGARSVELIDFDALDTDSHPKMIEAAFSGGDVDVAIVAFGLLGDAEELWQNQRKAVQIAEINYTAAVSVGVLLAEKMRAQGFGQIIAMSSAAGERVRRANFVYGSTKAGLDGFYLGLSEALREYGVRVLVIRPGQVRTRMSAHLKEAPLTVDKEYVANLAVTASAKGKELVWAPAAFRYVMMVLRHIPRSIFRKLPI

Compound Ddn-activated pretomanid has a Ki [1] of 1.5 ± 0.4 µM.

In the case of `O=[N+]([O-])c1cn2c(n1)OC[C@@H](OCc1ccc(OC(F)(F)F)cc1)C2` [pretomanid], the “pro-drug activation by purified Ddn with Fgd1/F420, read out by DprE2 inhibition” value [2] is reported as “upon activation of the pretomanid by Ddn, there was a dose-dependent reduction in Mt-DprE2 activity”.

For BTZ, the IC50 [3] was 11.8 ± 0.7 µM.

With `NC(=O)C1=CN([C@@H]2O[C@H](COP(=O)(O)OP(=O)(O)OC[C@H]3O[C@@H](n4cnc5c(N)ncnc54)[C@H](OP(=O)(O)O)[C@@H]3O)[C@@H](O)[C@H]2O)C=CC1` [NADPH] the “NADPH oxidation fluorescence assay with NADPH titration” value [4] was “DprE2 activity was monitored through a change in fluorescence due to the oxidation of the DprE2 cofactor, NADPH”.
